{"source": "ChEMBL document CHEMBL3797029", "about": "“Purinylpyridinylamino-based DFG-in/αC-helix-out B-Raf inhibitors: Applying mutant versus wild-type B-Raf selectivity indices for compound profiling” (Bioorg Med Chem, 2016)", "key": {"[1]": {"molecular_target": "Rhodopsin kinase GRK1 (Homo sapiens) (UniProt Q15835)", "sequence (Q15835 whole entry)": "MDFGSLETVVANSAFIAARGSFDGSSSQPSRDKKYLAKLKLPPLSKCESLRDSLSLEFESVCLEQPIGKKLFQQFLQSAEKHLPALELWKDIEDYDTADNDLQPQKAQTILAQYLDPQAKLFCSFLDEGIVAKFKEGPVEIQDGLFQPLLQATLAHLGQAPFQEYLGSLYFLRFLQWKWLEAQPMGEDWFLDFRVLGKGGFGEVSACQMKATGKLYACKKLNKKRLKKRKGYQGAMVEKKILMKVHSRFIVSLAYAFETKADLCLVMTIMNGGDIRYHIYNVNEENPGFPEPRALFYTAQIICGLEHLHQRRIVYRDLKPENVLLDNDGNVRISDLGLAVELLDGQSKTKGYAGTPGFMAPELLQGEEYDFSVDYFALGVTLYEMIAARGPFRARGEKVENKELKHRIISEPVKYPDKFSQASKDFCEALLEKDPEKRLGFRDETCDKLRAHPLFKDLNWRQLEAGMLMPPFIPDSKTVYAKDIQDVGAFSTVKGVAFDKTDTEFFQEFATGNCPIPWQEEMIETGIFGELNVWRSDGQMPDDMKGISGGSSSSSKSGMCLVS", "experiment": "Inhibition of full length wild type human GRK1 expressed in mammalian system assessed as enzyme activity at 1 uM relative to control", "design": "scale not given: the % may be the effect or the level left"}, "[2]": {"molecular_target": "Rho-associated protein kinase 2 (Homo sapiens) (UniProt O75116)", "experiment": "Inhibition of partial length wild type human ROCK2 expressed in mammalian system assessed as enzyme activity at 1 uM relative to control", "design": "scale not given: the % may be the effect or the level left"}, "[3]": {"molecular_target": "Mast/stem cell growth factor receptor Kit (Homo sapiens) (UniProt P10721)", "experiment": "Inhibition of partial length wild type human KIT expressed in bacterial system assessed as enzyme activity at 1 uM relative to control", "design": "scale not given: the % may be the effect or the level left"}, "[4]": {"molecular_target": "Serine/threonine-protein kinase Nek6 (Homo sapiens) (UniProt Q9HC98)", "sequence (Q9HC98 whole entry)": "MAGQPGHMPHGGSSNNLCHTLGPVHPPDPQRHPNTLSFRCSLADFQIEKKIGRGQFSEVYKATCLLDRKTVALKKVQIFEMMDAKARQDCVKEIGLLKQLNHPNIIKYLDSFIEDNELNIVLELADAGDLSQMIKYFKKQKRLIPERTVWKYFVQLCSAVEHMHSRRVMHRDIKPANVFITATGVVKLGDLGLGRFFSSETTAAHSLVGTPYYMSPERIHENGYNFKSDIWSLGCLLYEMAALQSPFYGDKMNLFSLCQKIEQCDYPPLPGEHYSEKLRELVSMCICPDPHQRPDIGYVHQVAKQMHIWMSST", "experiment": "Inhibition of full length wild type human NEK6 expressed in bacterial system assessed as enzyme activity at 1 uM relative to control", "design": "scale not given: the % may be the effect or the level left"}, "[5]": {"molecular_target": "Casein kinase I isoform gamma-2 (Homo sapiens) (UniProt P78368)", "experiment": "Inhibition of full length wild type human CSNK1G2 expressed in bacterial system assessed as enzyme activity at 1 uM relative to control", "design": "scale not given: the % may be the effect or the level left"}, "[6]": {"molecular_target": "Mitogen-activated protein kinase 14 (Homo sapiens) (UniProt Q16539)", "experiment": "Inhibition of full length wild type human p38alpha expressed in bacterial system assessed as enzyme activity at 1 uM relative to control", "design": "scale not given: the % may be the effect or the level left"}, "[7]": {"molecular_target": "Ribosomal protein S6 kinase alpha-1 (Homo sapiens) (UniProt Q15418)", "experiment": "Inhibition of partial length wild type human RSK1(Kin.Dom.1-N-terminal) expressed in bacterial system assessed as enzyme activity at 1 uM relative to control", "design": "scale not given: the % may be the effect or the level left"}, "[8]": {"molecular_target": "Interferon-induced, double-stranded RNA-activated protein kinase (Homo sapiens) (UniProt P19525)", "experiment": "Inhibition of partial length wild type human PRKR expressed in bacterial system assessed as enzyme activity at 1 uM relative to control", "design": "scale not given: the % may be the effect or the level left"}, "[9]": {"molecular_target": "Proto-oncogene tyrosine-protein kinase Src (Homo sapiens) (UniProt P12931)", "experiment": "Inhibition of partial length wild type human SRC expressed in bacterial system assessed as enzyme activity at 1 uM relative to control", "design": "scale not given: the % may be the effect or the level left"}, "[10]": {"molecular_target": "Ribosomal protein S6 kinase alpha-5 (Homo sapiens) (UniProt O75582)", "experiment": "Inhibition of partial length wild type human RPS6KA5 (N-terminal Kinase Domain 1) expressed in bacterial system assessed as enzyme activity at 1 uM relative to control", "design": "scale not given: the % may be the effect or the level left"}, "[11]": {"molecular_target": "Cyclin-G-associated kinase (Homo sapiens) (UniProt O14976)", "sequence (O14976 whole entry)": "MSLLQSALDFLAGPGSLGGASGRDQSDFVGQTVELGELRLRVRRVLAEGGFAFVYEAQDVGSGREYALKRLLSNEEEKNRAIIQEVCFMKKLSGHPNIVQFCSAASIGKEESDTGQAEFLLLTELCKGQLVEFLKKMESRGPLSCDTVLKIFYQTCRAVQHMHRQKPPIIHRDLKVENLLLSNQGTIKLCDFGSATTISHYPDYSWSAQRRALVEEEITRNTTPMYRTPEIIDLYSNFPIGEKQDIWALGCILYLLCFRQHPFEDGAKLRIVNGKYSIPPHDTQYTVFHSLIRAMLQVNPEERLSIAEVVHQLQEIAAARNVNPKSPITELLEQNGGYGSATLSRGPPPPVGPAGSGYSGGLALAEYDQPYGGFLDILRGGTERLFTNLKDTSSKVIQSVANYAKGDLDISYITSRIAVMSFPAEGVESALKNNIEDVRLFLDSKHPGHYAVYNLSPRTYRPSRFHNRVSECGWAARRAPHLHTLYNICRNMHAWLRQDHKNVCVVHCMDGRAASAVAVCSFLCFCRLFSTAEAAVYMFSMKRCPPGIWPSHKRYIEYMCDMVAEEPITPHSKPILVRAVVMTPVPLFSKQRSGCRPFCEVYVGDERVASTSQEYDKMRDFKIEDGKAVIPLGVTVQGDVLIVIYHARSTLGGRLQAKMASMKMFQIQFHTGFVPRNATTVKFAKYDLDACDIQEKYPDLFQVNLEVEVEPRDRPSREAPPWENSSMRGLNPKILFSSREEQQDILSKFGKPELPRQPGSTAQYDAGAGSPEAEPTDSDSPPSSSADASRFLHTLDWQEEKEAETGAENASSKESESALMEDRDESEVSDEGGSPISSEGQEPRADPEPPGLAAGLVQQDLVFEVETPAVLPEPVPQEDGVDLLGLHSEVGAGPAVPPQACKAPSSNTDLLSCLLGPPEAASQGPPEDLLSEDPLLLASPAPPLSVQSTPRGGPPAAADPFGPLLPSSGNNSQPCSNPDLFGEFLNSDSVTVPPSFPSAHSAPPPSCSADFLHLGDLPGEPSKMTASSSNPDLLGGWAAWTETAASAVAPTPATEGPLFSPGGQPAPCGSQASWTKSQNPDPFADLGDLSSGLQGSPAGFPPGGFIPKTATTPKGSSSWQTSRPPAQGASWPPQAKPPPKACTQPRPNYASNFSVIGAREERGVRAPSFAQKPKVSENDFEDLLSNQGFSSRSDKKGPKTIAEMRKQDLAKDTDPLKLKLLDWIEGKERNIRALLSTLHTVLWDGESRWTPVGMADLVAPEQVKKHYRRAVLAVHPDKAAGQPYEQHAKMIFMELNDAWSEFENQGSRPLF", "experiment": "Inhibition of partial length wild type human GAK expressed in bacterial system assessed as enzyme activity at 1 uM relative to control", "design": "scale not given: the % may be the effect or the level left"}, "[12]": {"molecular_target": "Mitogen-activated protein kinase kinase kinase 9 (Homo sapiens) (UniProt P80192)", "experiment": "Inhibition of partial length wild type human MLK1 expressed in bacterial system assessed as enzyme activity at 1 uM relative to control", "design": "scale not given: the % may be the effect or the level left"}, "[13]": {"molecular_target": "Serine/threonine-protein kinase TAO2 (Homo sapiens) (UniProt Q9UL54)", "sequence (Q9UL54 whole entry)": "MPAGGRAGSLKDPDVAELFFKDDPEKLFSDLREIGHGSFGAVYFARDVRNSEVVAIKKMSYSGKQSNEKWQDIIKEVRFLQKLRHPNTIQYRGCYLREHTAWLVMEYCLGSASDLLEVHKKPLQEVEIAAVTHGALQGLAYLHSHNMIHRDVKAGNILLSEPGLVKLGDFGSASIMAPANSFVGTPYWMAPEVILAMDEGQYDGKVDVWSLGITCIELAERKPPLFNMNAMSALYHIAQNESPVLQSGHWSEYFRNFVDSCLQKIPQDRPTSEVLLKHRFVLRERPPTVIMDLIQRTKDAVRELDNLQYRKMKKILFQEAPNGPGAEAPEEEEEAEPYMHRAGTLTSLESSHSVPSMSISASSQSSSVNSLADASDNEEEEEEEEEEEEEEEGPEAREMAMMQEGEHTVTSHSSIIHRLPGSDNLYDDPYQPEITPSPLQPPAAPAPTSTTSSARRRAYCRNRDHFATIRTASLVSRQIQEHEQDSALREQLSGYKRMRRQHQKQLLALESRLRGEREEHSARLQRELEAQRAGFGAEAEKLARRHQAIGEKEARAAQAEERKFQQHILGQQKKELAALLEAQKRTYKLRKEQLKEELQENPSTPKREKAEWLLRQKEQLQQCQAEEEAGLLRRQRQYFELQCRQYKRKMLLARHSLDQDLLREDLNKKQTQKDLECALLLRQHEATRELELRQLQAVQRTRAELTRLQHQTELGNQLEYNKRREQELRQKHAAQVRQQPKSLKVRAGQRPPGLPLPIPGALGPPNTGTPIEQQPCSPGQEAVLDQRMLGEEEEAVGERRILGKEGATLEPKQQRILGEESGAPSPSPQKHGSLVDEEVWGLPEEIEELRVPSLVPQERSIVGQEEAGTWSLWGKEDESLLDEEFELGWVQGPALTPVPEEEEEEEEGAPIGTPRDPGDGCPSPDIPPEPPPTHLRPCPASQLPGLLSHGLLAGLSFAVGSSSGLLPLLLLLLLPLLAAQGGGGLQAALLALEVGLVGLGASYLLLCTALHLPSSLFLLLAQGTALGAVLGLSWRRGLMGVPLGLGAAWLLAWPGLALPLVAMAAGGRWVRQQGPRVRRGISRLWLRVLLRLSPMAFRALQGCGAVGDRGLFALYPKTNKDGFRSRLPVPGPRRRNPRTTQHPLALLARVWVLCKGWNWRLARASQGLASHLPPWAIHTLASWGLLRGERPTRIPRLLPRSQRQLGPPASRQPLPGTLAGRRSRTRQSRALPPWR", "experiment": "Inhibition of partial length wild type human TAOK2 expressed in mammalian system assessed as enzyme activity at 1 uM relative to control", "design": "scale not given: the % may be the effect or the level left"}, "[14]": {"molecular_target": "Tyrosine-protein kinase JAK2 (Homo sapiens) (UniProt O60674)", "experiment": "Inhibition of partial length wild type human JAK2 (catalytic JH1 domain) expressed in mammalian system assessed as enzyme activity at 1 uM relative to control", "design": "scale not given: the % may be the effect or the level left"}, "[15]": {"molecular_target": "Cyclin-dependent kinase 4/cyclin D1 (Homo sapiens) (UniProt P11802+P24385)", "experiment": "Inhibition of full length wild type human CDK4-cyclinD1 expressed in mammalian system assessed as enzyme activity at 1 uM relative to control", "design": "scale not given: the % may be the effect or the level left"}, "[16]": {"molecular_target": "Mitogen-activated protein kinase kinase kinase 1 (Homo sapiens) (UniProt Q13233)", "experiment": "Inhibition of partial length wild type human MAP3K1 expressed in mammalian system assessed as enzyme activity at 1 uM relative to control", "design": "scale not given: the % may be the effect or the level left"}, "[17]": {"molecular_target": "Serine/threonine-protein kinase PLK1 (Homo sapiens) (UniProt P53350)", "experiment": "Inhibition of partial length wild type human PLK1 expressed in mammalian system assessed as enzyme activity at 1 uM relative to control", "design": "scale not given: the % may be the effect or the level left"}, "[18]": {"molecular_target": "Tyrosine-protein kinase Lck (Homo sapiens) (UniProt P06239)", "experiment": "Inhibition of partial length wild type human LCK expressed in bacterial system assessed as enzyme activity at 1 uM relative to control", "design": "scale not given: the % may be the effect or the level left"}, "[19]": {"molecular_target": "Hepatocyte growth factor receptor (Homo sapiens) (UniProt P08581)", "experiment": "Inhibition of partial length wild type human MET expressed in bacterial system assessed as enzyme activity at 1 uM relative to control", "design": "scale not given: the % may be the effect or the level left"}, "[20]": {"molecular_target": "Casein kinase II subunit alpha (Homo sapiens) (UniProt P68400)", "sequence (P68400 whole entry, looked up)": "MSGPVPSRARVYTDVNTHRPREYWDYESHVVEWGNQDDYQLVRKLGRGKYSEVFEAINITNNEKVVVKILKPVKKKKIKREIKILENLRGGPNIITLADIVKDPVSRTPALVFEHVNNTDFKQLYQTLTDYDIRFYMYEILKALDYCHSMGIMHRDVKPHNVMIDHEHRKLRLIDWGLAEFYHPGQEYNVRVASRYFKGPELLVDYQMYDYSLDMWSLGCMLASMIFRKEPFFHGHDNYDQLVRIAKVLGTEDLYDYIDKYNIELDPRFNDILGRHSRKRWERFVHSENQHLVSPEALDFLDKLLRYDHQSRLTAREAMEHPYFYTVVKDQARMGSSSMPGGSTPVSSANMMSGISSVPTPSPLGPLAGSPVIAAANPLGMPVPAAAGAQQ", "experiment": "Inhibition of full length wild type human CSNK2A1 expressed in mammalian system assessed as enzyme activity at 1 uM relative to control", "design": "scale not given: the % may be the effect or the level left"}, "[21]": {"molecular_target": "Serine/threonine-protein kinase 32B (Homo sapiens) (UniProt Q9NY57)", "experiment": "Inhibition of full length wild type human YANK2 expressed in bacterial system assessed as enzyme activity at 1 uM relative to control", "design": "scale not given: the % may be the effect or the level left"}, "[22]": {"molecular_target": "Casein kinase I isoform delta (Homo sapiens) (UniProt P48730)", "experiment": "Inhibition of full length wild type human CSNK1D expressed in bacterial system assessed as enzyme activity at 1 uM relative to control", "design": "scale not given: the % may be the effect or the level left"}, "[23]": {"molecular_target": "Serine/threonine-protein kinase B-raf (Homo sapiens, UniProt P15056)", "sequence (P15056 whole entry)": "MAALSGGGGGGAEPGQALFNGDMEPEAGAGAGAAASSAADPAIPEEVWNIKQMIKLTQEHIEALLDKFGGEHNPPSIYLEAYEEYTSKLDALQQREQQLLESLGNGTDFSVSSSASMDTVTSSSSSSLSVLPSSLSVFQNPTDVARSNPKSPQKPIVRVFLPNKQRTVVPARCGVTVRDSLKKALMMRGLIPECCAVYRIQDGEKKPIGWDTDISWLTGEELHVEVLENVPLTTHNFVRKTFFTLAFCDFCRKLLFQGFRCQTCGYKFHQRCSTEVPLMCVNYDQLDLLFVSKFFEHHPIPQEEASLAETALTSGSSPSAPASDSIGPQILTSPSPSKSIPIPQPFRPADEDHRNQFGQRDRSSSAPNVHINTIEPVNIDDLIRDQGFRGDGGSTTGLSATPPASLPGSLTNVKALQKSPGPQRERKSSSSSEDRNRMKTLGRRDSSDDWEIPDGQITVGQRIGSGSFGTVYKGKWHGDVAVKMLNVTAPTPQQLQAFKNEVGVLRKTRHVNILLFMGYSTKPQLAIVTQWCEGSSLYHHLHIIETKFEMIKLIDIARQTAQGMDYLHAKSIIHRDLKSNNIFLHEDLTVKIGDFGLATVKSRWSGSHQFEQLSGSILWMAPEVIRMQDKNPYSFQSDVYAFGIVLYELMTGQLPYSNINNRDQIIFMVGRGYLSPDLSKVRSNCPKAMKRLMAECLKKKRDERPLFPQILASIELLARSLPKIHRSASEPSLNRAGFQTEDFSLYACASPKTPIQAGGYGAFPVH", "experiment": "Inhibition of wild type B-Raf in human MIAPaCa2 cells assessed as reduction in ERK phosphorylation preincubated for 1 hr by Western blot method", "assay_type": "cell-based, MIA PaCa-2"}, "[24]": {"molecular_target": "Dual specificity protein kinase CLK1 (Homo sapiens) (UniProt P49759)", "sequence (P49759 whole entry, looked up)": "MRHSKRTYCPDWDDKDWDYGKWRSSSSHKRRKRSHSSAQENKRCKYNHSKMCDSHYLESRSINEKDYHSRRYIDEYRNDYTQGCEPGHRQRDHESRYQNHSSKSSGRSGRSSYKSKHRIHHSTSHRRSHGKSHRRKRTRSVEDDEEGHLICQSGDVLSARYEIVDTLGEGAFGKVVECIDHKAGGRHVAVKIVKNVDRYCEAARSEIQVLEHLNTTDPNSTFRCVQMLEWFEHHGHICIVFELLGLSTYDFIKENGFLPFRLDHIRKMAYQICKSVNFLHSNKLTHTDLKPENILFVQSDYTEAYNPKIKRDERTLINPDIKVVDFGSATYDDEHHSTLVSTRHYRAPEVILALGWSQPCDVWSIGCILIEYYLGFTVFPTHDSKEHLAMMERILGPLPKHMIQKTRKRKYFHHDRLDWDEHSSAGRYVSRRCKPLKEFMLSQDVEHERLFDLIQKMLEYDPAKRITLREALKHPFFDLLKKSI", "experiment": "Inhibition of full length wild type human CLK1 expressed in bacterial system assessed as enzyme activity at 1 uM relative to control", "design": "scale not given: the % may be the effect or the level left"}, "[25]": {"molecular_target": "Calcium/calmodulin-dependent protein kinase type II subunit delta (Homo sapiens) (UniProt Q13557)", "experiment": "Inhibition of partial length wild type human CAMK2delta expressed in bacterial system assessed as enzyme activity at 1 uM relative to control", "design": "scale not given: the % may be the effect or the level left"}, "[26]": {"molecular_target": "Receptor-type tyrosine-protein kinase FLT3 (Homo sapiens) (UniProt P36888)", "experiment": "Inhibition of partial length wild type human FLT3 expressed in bacterial system assessed as enzyme activity at 1 uM relative to control", "design": "scale not given: the % may be the effect or the level left"}, "[27]": {"molecular_target": "cGMP-dependent protein kinase 1 (Homo sapiens) (UniProt Q13976)", "experiment": "Inhibition of partial length wild type human PRKG1 expressed in bacterial system assessed as enzyme activity at 1 uM relative to control", "design": "scale not given: the % may be the effect or the level left"}, "[28]": {"tested_on": "cAMP-dependent protein kinase catalytic subunit alpha", "experiment": "Inhibition of partial length wild type human PKACalpha expressed in bacterial system assessed as enzyme activity at 1 uM relative to control", "design": "scale not given: the % may be the effect or the level left"}, "[29]": {"molecular_target": "Mitogen-activated protein kinase 12 (Homo sapiens) (UniProt P53778)", "experiment": "Inhibition of full length wild type human p38gamma expressed in bacterial system assessed as enzyme activity at 1 uM relative to control", "design": "scale not given: the % may be the effect or the level left"}, "[30]": {"molecular_target": "Dual specificity tyrosine-phosphorylation-regulated kinase 1B (Homo sapiens) (UniProt Q9Y463)", "experiment": "Inhibition of partial length wild type human DYRK1B expressed in bacterial system assessed as enzyme activity at 1 uM relative to control", "design": "scale not given: the % may be the effect or the level left"}, "[31]": {"molecular_target": "Tyrosine-protein kinase Fyn (Homo sapiens) (UniProt P06241)", "experiment": "Inhibition of partial length wild type human FYN expressed in bacterial system assessed as enzyme activity at 1 uM relative to control", "design": "scale not given: the % may be the effect or the level left"}}, "data": [{"smiles": "CN(C)S(=O)(=O)Nc1ccc(F)c(Nc2ncccc2-c2ncnc3[nH]cnc23)c1F", "values": [{"measurement": "Activity", "setting": "[1]", "result": 76, "unit": "%"}, {"measurement": "Activity", "setting": "[2]", "result": 92, "unit": "%"}, {"measurement": "Activity", "setting": "[3]", "result": 68, "unit": "%"}, {"measurement": "Activity", "setting": "[4]", "result": 79, "unit": "%"}, {"measurement": "Activity", "setting": "[5]", "result": 60, "unit": "%"}, {"measurement": "Activity", "setting": "[6]", "result": 91, "unit": "%"}, {"measurement": "Activity", "setting": "[7]", "result": 94, "unit": "%"}, {"measurement": "Activity", "setting": "[8]", "result": 83, "unit": "%"}, {"measurement": "Activity", "setting": "[9]", "result": 100, "unit": "%"}, {"measurement": "Activity", "setting": "[10]", "result": 100, "unit": "%"}, {"measurement": "Activity", "setting": "[11]", "result": 78, "unit": "%"}, {"measurement": "Activity", "setting": "[12]", "result": 96, "unit": "%"}, {"measurement": "Activity", "setting": "[13]", "result": 94, "unit": "%"}, {"measurement": "Activity", "setting": "[14]", "result": 100, "unit": "%"}, {"measurement": "Activity", "setting": "[15]", "result": 98, "unit": "%"}, {"measurement": "Activity", "setting": "[16]", "result": 83, "unit": "%"}, {"measurement": "Activity", "setting": "[17]", "result": 100, "unit": "%"}, {"measurement": "Activity", "setting": "[18]", "result": 79, "unit": "%"}, {"measurement": "Activity", "setting": "[19]", "result": 88, "unit": "%"}, {"measurement": "Activity", "setting": "[20]", "result": 64, "unit": "%"}, {"measurement": "Activity", "setting": "[21]", "result": 100, "unit": "%"}, {"measurement": "Activity", "setting": "[22]", "result": 83, "unit": "%"}, {"measurement": "EC50", "setting": "[23]", "result": 1780, "unit": "nM"}, {"measurement": "Activity", "setting": "[24]", "result": 90, "unit": "%"}, {"measurement": "Activity", "setting": "[25]", "result": 83, "unit": "%"}, {"measurement": "Activity", "setting": "[26]", "result": 71, "unit": "%"}, {"measurement": "Activity", "setting": "[27]", "result": 92, "unit": "%"}, {"measurement": "Activity", "setting": "[28]", "result": 94, "unit": "%"}, {"measurement": "Activity", "setting": "[29]", "result": 100, "unit": "%"}, {"measurement": "Activity", "setting": "[30]", "result": 99, "unit": "%"}, {"measurement": "Activity", "setting": "[31]", "result": 64, "unit": "%"}]}]}
